Experimental data from patent US20250026724A1, “(1,4,5-TRISUBSTITUTED 1H-PYRAZOL-3-YL)OXY-2-ALKYLTHIOALKYL ACIDS AND -ALKYL ACID DERIVATIVES, SALTS THEREOF AND USE THEREOF AS ACTIVE HERBICIDAL INGREDIENTS” (BAYER AKTIENGESELLSCHAFT, priority 2021, published 2025).

system: Setaria viridis (SETVI); test: Post-emergence herbicidal action, greenhouse pot trial; type: in vivo; details: Setaria viridis, 504 h, 320 g/ha, visual rating after about 3 weeks, read-out: Post-emergence effect at 320 g/ha against SETVI in %
Protocol: (§1) Seeds of monocotyledonous and dicotyledonous weeds and crop plants are placed in sandy loam in plastic or organic planting pots, covered with soil and cultivated in a greenhouse under controlled growth conditions. 2 to 3 weeks after sowing, the trial plants are treated at the one-leaf stage. The compounds of the invention, formulated in the form of wettable powders (WP) or as emulsion concentrates (EC), are then sprayed onto the green parts of the plants as aqueous suspension or emulsion with addition of 0.5% additive at a water application rate equivalent to 600 l/ha. After about 3 weeks of keeping the trial plants in the greenhouse under optimum growth conditions, the effect of the preparations is rated visually in comparison to untreated controls. For example, 100% activity=the plants have died, 0% activity=like control plants.
(§2) Tables B1 to B14 below show the effects of selected compounds of the general formula (I) according to Table 1 on various harmful plants and at an application rate corresponding to 320 g/ha or lower, which were obtained by the trial procedure specified above. The appendices “a”, “b” and “c” give differentiation by dosage used with otherwise the same harmful plants tested.
(§3) As shown by results from Tables B1 to B19, inventive compounds of the general formula (I) in the case of post-emergence treatment have good herbicidal efficacy against harmful plants, for example Abutilon theophrasti (ABUTH), Alopecurus myosuroides (ALOMY), Amaranthus retroflexus (AMARE), Avena fatua (AVEFA), Digitaria sanguinalis (DIGSA), Echinochloa crus-galli (ECHCG), Bassia scoparia (KCHSC), Lolium rigidum (LOLRI), Matricaria inodora (MATIN), Pharbitis purpurea (PHBPU), Polygonum convolvulus (POLCO), Setaria viridis (SETVI), Veronica persica (VERPE) and Viola tricolor (VIOTR) at an application rate of 320 g of active substance or less per hectare, and good crop plant compatibility in the case of organisms such as Oryza sativa (ORYSA), Zea mays (ZEAMX), Brassica napus (BRSNW), Glycine max (GLXMA) and Triticum aestivum (TRZAS) at an application rate of 320 g or less per hectare.

| Structure (SMILES) | pest or weed control at 320 g/ha [%] |
| --- | --- |
| CCOC(=O)C(Oc1nn(-c2ccccc2)c(-c2ccc(F)nc2)c1Br)SC (stereo not shown) [Example I-04] | 90 |
| CCOC(=O)C(Oc1nn(-c2cnccn2)c(-c2ccc(F)nc2)c1Br)SC (stereo not shown) [Example I-17] | 80 |
| CCOC(=O)C(Oc1nn(-c2ncccc2F)c(-c2ccc(F)nc2)c1Cl)SC (stereo not shown) [Example I-19] | 90 |

system: Lolium rigidum (LOLRI); test: as above; type: in vivo; details: Lolium rigidum, 504 h, 320 g/ha, visual rating after about 3 weeks, read-out: Post-emergence effect at 320 g/ha against LOLRI in %
Protocol: as §1, §2, §3

| Structure (SMILES) | pest or weed control at 320 g/ha [%] |
| --- | --- |
| CCOC(=O)C(Oc1nn(-c2ccccc2)c(-c2ccc(F)nc2)c1Br)SC (stereo not shown) [Example I-04] | 90 |
| CCOC(=O)C(Oc1nn(-c2ncccc2F)c(-c2ccc(F)nc2)c1Cl)SC (stereo not shown) [Example I-19] | 100 |

system: Echinochloa crus-galli (ECHCG); test: as above; type: in vivo; details: Echinochloa crus-galli, 504 h, 320 g/ha, visual rating after about 3 weeks, read-out: Post-emergence effect at 320 g/ha against ECHCG in %
Protocol: as §1, §2, §3

| Structure (SMILES) | pest or weed control at 320 g/ha [%] |
| --- | --- |
| CCOC(=O)C(Oc1nn(-c2ccccc2)c(-c2ccc(F)nc2)c1Br)SC (stereo not shown) [Example I-04] | 80 |
| CCOC(=O)C(Oc1nn(-c2cnccn2)c(-c2ccc(F)nc2)c1Br)SC (stereo not shown) [Example I-17] | 80 |
| CCOC(=O)C(Oc1nn(-c2ncccc2F)c(-c2ccc(F)nc2)c1Cl)SC (stereo not shown) [Example I-19] | 100 |

system: Pharbitis purpurea (PHBPU); test: as above; type: in vivo; details: Ipomoea purpurea, 504 h, 80 g/ha, visual rating after about 3 weeks, read-out: Post-emergence effect at 80 g/ha against PHBPU in %
Protocol: as §1, §2, §3

| Structure (SMILES) | pest or weed control at 80 g/ha [%] |
| --- | --- |
| CCOC(=O)C(Oc1nn(-c2cnccn2)c(-c2ccc(F)nc2)c1Br)SC (stereo not shown) [Example I-17] | 80 |
| CCOC(=O)C(Oc1nn(-c2ncccc2F)c(-c2ccc(F)nc2)c1Cl)SC (stereo not shown) [Example I-19] | 80 |

same assay, conditions: Ipomoea purpurea, 504 h, 320 g/ha, visual rating after about 3 weeks, read-out: Post-emergence effect at 320 g/ha against PHBPU in %

| Structure (SMILES) | pest or weed control at 320 g/ha [%] |
| --- | --- |
| CCOC(=O)C(Oc1nn(-c2cnccn2)c(-c2ccc(F)nc2)c1Br)SC (stereo not shown) [Example I-17] | 80 |
| CCOC(=O)C(Oc1nn(-c2ncccc2F)c(-c2ccc(F)nc2)c1Cl)SC (stereo not shown) [Example I-19] | 90 |

system: Amaranthus retroflexus (AMARE); test: as above; type: in vivo; details: Amaranthus retroflexus, 504 h, 80 g/ha, visual rating after about 3 weeks, read-out: Post-emergence effect at 80 g/ha against AMARE in %
Protocol: as §1, §2, §3

| Structure (SMILES) | pest or weed control at 80 g/ha [%] |
| --- | --- |
| CCOC(=O)C(Oc1nn(-c2ncccc2F)c(-c2ccc(F)nc2)c1Cl)SC (stereo not shown) [Example I-19] | 80 |

same assay, conditions: Amaranthus retroflexus, 504 h, 320 g/ha, visual rating after about 3 weeks, read-out: Post-emergence effect at 320 g/ha against AMARE in %

| Structure (SMILES) | pest or weed control at 320 g/ha [%] |
| --- | --- |
| CCOC(=O)C(Oc1nn(-c2cnccn2)c(-c2ccc(F)nc2)c1Br)SC (stereo not shown) [Example I-17] | 80 |
| CCOC(=O)C(Oc1nn(-c2ncccc2F)c(-c2ccc(F)nc2)c1Cl)SC (stereo not shown) [Example I-19] | 90 |

system: Abutilon theophrasti (ABUTH); test: as above; type: in vivo; details: Abutilon theophrasti, 504 h, 320 g/ha, visual rating after about 3 weeks, read-out: Post-emergence effect at 320 g/ha against ABUTH in %
Protocol: as §1, §2, §3

| Structure (SMILES) | pest or weed control at 320 g/ha [%] |
| --- | --- |
| CCOC(=O)C(Oc1nn(-c2ccccc2)c(-c2ccc(F)nc2)c1Br)SC (stereo not shown) [Example I-04] | 80 |
| CCOC(=O)C(Oc1nn(-c2ncccc2F)c(-c2ccc(F)nc2)c1Cl)SC (stereo not shown) [Example I-19] | 90 |

system: Polygonum convolvulus (POLCO); test: as above; type: in vivo; details: Fallopia convolvulus, 504 h, 80 g/ha, visual rating after about 3 weeks, read-out: Post-emergence effect at 80 g/ha against POLCO in %
Protocol: as §1, §2, §3

| Structure (SMILES) | pest or weed control at 80 g/ha [%] |
| --- | --- |
| CCOC(=O)C(Oc1nn(-c2ccccc2)c(-c2ccc(F)nc2)c1Br)SC (stereo not shown) [Example I-04] | 80 |

same assay, conditions: Fallopia convolvulus, 504 h, 320 g/ha, visual rating after about 3 weeks, read-out: Post-emergence effect at 320 g/ha against POLCO in %

| Structure (SMILES) | pest or weed control at 320 g/ha [%] |
| --- | --- |
| CCOC(=O)C(Oc1nn(-c2ccccc2)c(-c2ccc(F)nc2)c1Br)SC (stereo not shown) [Example I-04] | 90 |
| CCOC(=O)C(Oc1nn(-c2ncccc2F)c(-c2ccc(F)nc2)c1Cl)SC (stereo not shown) [Example I-19] | 90 |

system: Avena fatua (AVEFA); test: as above; type: in vivo; details: Avena fatua, 504 h, 320 g/ha, visual rating after about 3 weeks, read-out: Post-emergence effect at 320 g/ha against AVEFA in %
Protocol: as §1, §2, §3

| Structure (SMILES) | pest or weed control at 320 g/ha [%] |
| --- | --- |
| CCOC(=O)C(Oc1nn(-c2cnccn2)c(-c2ccc(F)nc2)c1Br)SC (stereo not shown) [Example I-17] | 80 |
| CCOC(=O)C(Oc1nn(-c2ncccc2F)c(-c2ccc(F)nc2)c1Cl)SC (stereo not shown) [Example I-19] | 100 |

system: Digitaria sanguinalis (DIGSA); test: as above; type: in vivo; details: Digitaria sanguinalis, 504 h, 320 g/ha, visual rating after about 3 weeks, read-out: Post-emergence effect at 320 g/ha against DIGSA in %
Protocol: as §1, §2, §3

| Structure (SMILES) | pest or weed control at 320 g/ha [%] |
| --- | --- |
| CCOC(=O)C(Oc1nn(-c2ccccc2)c(-c2ccc(F)nc2)c1Br)SC (stereo not shown) [Example I-04] | 80 |
| CCOC(=O)C(Oc1nn(-c2cnccn2)c(-c2ccc(F)nc2)c1Br)SC (stereo not shown) [Example I-17] | 80 |
| CCOC(=O)C(Oc1nn(-c2ncccc2F)c(-c2ccc(F)nc2)c1Cl)SC (stereo not shown) [Example I-19] | 80 |

system: Matricaria inodora (MATIN); test: as above; type: in vivo; details: Tripleurospermum inodorum, 504 h, 320 g/ha, visual rating after about 3 weeks, read-out: Post-emergence effect at 320 g/ha against MATIN in %
Protocol: as §1, §2, §3

| Structure (SMILES) | pest or weed control at 320 g/ha [%] |
| --- | --- |
| CCOC(=O)C(Oc1nn(-c2ccccc2)c(-c2ccc(F)nc2)c1Br)SC (stereo not shown) [Example I-04] | 90 |
| CCOC(=O)C(Oc1nn(-c2ncccc2F)c(-c2ccc(F)nc2)c1Cl)SC (stereo not shown) [Example I-19] | 90 |

system: Viola tricolor (VIOTR); test: as above; type: in vivo; details: Viola tricolor, 504 h, 80 g/ha, read-out: Post-emergence effect against VIOTR
Protocol: as §1, §2, §3

| Structure (SMILES) | pest or weed control at 80 g/ha [%] |
| --- | --- |
| CCOC(=O)C(Oc1nn(-c2ccccc2)c(-c2ccc(F)nc2)c1Br)SC (stereo not shown) [Example I-04] | 80 |
| CCOC(=O)C(Oc1nn(-c2ncccc2F)c(-c2ccc(F)nc2)c1Cl)SC (stereo not shown) [Example I-19] | 90 |

same assay, conditions: Viola tricolor, 504 h, 320 g/ha, read-out: Post-emergence effect against VIOTR

| Structure (SMILES) | pest or weed control at 320 g/ha [%] |
| --- | --- |
| CCOC(=O)C(Oc1nn(-c2ccccc2)c(-c2ccc(F)nc2)c1Br)SC (stereo not shown) [Example I-04] | 90 |
| CCOC(=O)C(Oc1nn(-c2ncccc2F)c(-c2ccc(F)nc2)c1Cl)SC (stereo not shown) [Example I-19] | 100 |
